For experiment [1], the system named is Plasmodium falciparum. The experiment is described as follows: Inhibition of recombinant Plasmodium falciparum Dxr expressed in Escherichia coli C43(DE3) using DOXP as substrate assessed as NADPH oxidation at 100 uM by spectrophotometric analysis.
In experiment [2] the test system is Plasmodium falciparum. The experiment is described as follows: Schizontocidal activity against Plasmodium falciparum K1 infected in human RBC after 72 hrs by Malstat reagent-based spectrophotometric analysis. It counts as functional. As to conditions: K1, 72 h.
For experiment [3], the target named is T1, 1-deoxy-D-xylulose 5-phosphate reductoisomerase (Escherichia coli) (UniProt W8T2T2).
T1 sequence (whole entry): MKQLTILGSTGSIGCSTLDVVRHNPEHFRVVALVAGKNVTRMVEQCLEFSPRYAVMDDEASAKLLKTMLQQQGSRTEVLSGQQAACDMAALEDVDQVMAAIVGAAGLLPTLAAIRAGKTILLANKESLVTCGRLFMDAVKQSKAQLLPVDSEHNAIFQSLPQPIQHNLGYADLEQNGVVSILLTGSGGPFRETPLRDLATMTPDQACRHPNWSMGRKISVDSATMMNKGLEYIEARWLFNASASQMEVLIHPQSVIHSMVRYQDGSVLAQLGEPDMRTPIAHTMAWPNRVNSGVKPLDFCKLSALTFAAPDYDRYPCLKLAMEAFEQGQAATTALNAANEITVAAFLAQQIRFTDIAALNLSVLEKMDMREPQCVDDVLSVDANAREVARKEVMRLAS
Kind of experiment: Inhibition of recombinant Escherichia coli Dxr expressed in Escherichia coli BL21 CodonPlus (DE3)-RIL cells using DOXP as substrate assessed as NADPH oxidation at 100 uM preincubated for 5 mins with NADPH followed by substrate addition by spectrophotometric analysis.

Experiment [4] has as its system Mycolicibacterium smegmatis. The experiment is described as follows: Antibacterial activity against Mycobacterium smegmatis ATCC 607 after 24 to 48 hrs by two-fold broth microdilution method. It counts as functional. (In general: Dilution methods test growth across graded concentrations, often in twofold steps.)
Experiment [5] can be described thus: Inhibition of recombinant Plasmodium falciparum Dxr expressed in Escherichia coli C43(DE3) using DOXP as substrate assessed as NADPH oxidation by spectrophotometric analysis.
For experiment [6], the target named is T2, 1-deoxy-D-xylulose 5-phosphate reductoisomerase (Mycobacterium tuberculosis) (UniProt P9WNS1).
T2 sequence (whole entry): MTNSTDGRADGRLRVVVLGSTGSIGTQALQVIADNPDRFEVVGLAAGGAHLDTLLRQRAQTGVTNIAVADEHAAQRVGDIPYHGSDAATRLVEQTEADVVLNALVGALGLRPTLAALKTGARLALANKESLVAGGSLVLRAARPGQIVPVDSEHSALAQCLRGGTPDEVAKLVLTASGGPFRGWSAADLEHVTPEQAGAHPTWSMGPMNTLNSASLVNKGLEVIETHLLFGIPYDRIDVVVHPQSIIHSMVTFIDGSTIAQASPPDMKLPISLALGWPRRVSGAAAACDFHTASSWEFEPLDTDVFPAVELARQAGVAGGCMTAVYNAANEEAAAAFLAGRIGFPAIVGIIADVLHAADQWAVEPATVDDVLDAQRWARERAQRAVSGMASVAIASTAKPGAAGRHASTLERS
The experiment is described as follows: Inhibition of recombinant Mycobacterium tuberculosis Dxr expressed in Escherichia coli BL21 CodonPlus (DE3)-RIL cells using DOXP as substrate assessed as NADPH oxidation at 100 uM by spectrophotometric analysis.

The subject of experiment [7] is Escherichia coli. The experiment is described as follows: Antibacterial activity against Escherichia coli ATCC 25922 by two-fold broth microdilution method. It is filed as functional.
Experiment [8] concerns Escherichia coli. The experiment is described as follows: Antibacterial activity against Escherichia coli ATCC 8739 by two-fold broth microdilution method. It is filed as functional.
Experiment [9] deals with Mycolicibacterium smegmatis. Kind of experiment: Antibacterial activity against Mycobacterium smegmatis ATCC 700084 after 24 to 48 hrs by two-fold broth microdilution method. It is filed as functional.
Experiment [10] concerns Escherichia coli. The experiment is described as follows: Antibacterial activity against Escherichia coli K-12 by two-fold broth microdilution method. It is filed as functional.
Experiment [11] deals with T3, 1-deoxy-D-xylulose 5-phosphate reductoisomerase (Mycobacterium tuberculosis, UniProt P9WNS1).
T3 sequence (P9WNS1 whole entry): T2 sequence (whole entry)
Kind of experiment: Inhibition of recombinant Mycobacterium tuberculosis Dxr expressed in Escherichia coli BL21 CodonPlus (DE3)-RIL cells using DOXP as substrate assessed as NADPH oxidation by spectrophotometric analysis.

For experiment [12], the target named is T4, 1-deoxy-D-xylulose 5-phosphate reductoisomerase (Escherichia coli, UniProt W8T2T2).
T4 sequence (W8T2T2 whole entry): T1 sequence (whole entry)
Kind of experiment: Inhibition of recombinant Escherichia coli Dxr expressed in Escherichia coli BL21 CodonPlus (DE3)-RIL cells using DOXP as substrate assessed as NADPH oxidation preincubated for 5 mins with NADPH followed by substrate addition by spectrophotometric analysis.

The source of these data is ChEMBL document CHEMBL3421566 (J Med Chem, 2015).

Values after ≈ are worked out from the molar mass of the structure shown. Active and inactive are the calls of the source. The rule behind the calls is not given here.

In the case of `CN(O)C(=O)CC(Cc1ccccc1)CP(=O)(O)O` (centres undefined), the inhibition entry in experiment [1] and in [3] was “Active” each time. For the same molecule, the MIC50 (usually an inhibitory concentration at the 50% level, which refers to growth in some studies and to a panel of isolates in others) in experiment [2] is at least 56.8 µM.
For the molecule `COc1ccc(C(CC(=O)N(C)O)CP(=O)(O)O)cc1` (centres undefined), the MIC50 in experiment [4] was over 250 µM; in experiment [7], over 250 µM; in experiment [8], over 250 µM; in experiment [9] it was over 250 µM; in experiment [10], over 250 µM; in [2], over 64 µM. Besides, the IC50 – broadly, the concentration that gives 50% inhibition – in experiment [5] was found to be 18.8 µM. In addition, the inhibition result in [6] and in experiment [3] was “inactive” each time.
For the molecule `CN(O)C(=O)CC(CCCc1ccccc1)CP(=O)(O)O` (centres undefined), the MIC50 in experiment [4] is over 250 µM; in experiment [7], over 250 µM; in experiment [8], over 250 µM; in experiment [9], over 250 µM; in experiment [10], over 250 µM; in experiment [2] it was 0.43 µM (≈ 0.136 µg/mL). Besides, the IC50 in [5] stood at 0.117 µM; in [11], 0.843 µM; in experiment [12], 10.3 µM.
On to `CN(O)C(=O)CC(CP(=O)(O)O)c1ccccc1` (centres undefined), for which the MIC50 in experiment [4] is over 250 µM; in experiment [7], over 250 µM; in experiment [8], over 250 µM; in [9] it was over 250 µM; in experiment [10], over 250 µM; in experiment [2] it was over 64 µM. In addition, the IC50 in [5] came to 3.3 µM. The inhibition result in [6] and in experiment [3] was “inactive” in each case.
With `CC(=O)N(O)CCCP(=O)(O)O` [FR-900098], the MIC50 is over 250 µM in [4]; 62.5 µM (≈ 12.3 µg/mL) in experiment [7]; 7.8 µM (≈ 1.54 µg/mL) in experiment [8]; over 250 µM in [9]; 15.6 µM (≈ 3.08 µg/mL) in [10].
As for `CN(O)C(=O)CC(CP(=O)(O)O)c1ccc(Cl)c(Cl)c1` (centres undefined), the MIC50 in experiment [4] was over 250 µM; in experiment [7] it was over 250 µM; in experiment [8] it was over 250 µM; in experiment [9], over 250 µM; in [10], over 250 µM; in experiment [2], over 64 µM. Besides, the inhibition entry in experiment [6] and in experiment [3] was “inactive” each time.
For `CN(O)C(=O)CC(CCCCc1ccccc1)CP(=O)(O)O` (centres undefined), the MIC50 in experiment [4] was over 250 µM; in experiment [7] it was over 250 µM; in experiment [8] it was over 250 µM; in [9], over 250 µM; in experiment [10] it was over 250 µM; in [2], under 0.25 µM. In addition, the IC50 in experiment [5] was determined as 0.069 µM; in experiment [11], 6.67 µM; in experiment [12], 273 µM.
Regarding `O=CN(O)CCCP(=O)(O)O` [FOSMIDOMYCIN], the MIC50 in experiment [4] was over 250 µM; in [7], 250 µM (≈ 45.8 µg/mL); in experiment [8] it was 0.98 µM (≈ 0.179 µg/mL); in experiment [9], over 250 µM; in experiment [10] it was 7.8 µM (≈ 1.43 µg/mL). Further, in experiment [5], the IC50 was 0.036 µM.
Consider `CC(CC(=O)N(C)O)CP(=O)(O)O` (centres undefined), for which the IC50 in [11] was 0.205 µM; in experiment [12], 7.13 µM. Further, the MIC50 in [2] turned out to be 0.74 µM (≈ 0.156 µg/mL).
Consider `CN(O)C(=O)CC(CCc1ccccc1)CP(=O)(O)O` (centres undefined), for which the MIC50 in experiment [4] is over 250 µM; in experiment [7], over 250 µM; in experiment [8], over 250 µM; in [9] it was over 250 µM; in experiment [10], over 250 µM; in experiment [2], 35.4 µM (≈ 10.7 µg/mL). The IC50 in experiment [5] was found to be 1.36 µM; in experiment [11], 31.4 µM.
Regarding `Cc1ccc(C(CC(=O)N(C)O)CP(=O)(O)O)cc1` (centres undefined), the MIC50 in experiment [4] is over 250 µM; in [7], over 250 µM; in [8], over 250 µM; in experiment [9] it was over 250 µM; in experiment [10], over 250 µM; in experiment [2], over 64 µM. For the same molecule, the IC50 in [5] worked out at 9.3 µM. The inhibition entry in experiment [6] and in experiment [3] was “inactive” each time.
On to `CN(O)C(=O)CCCP(=O)(O)O`, for which the MIC50 in experiment [4] is over 250 µM; in experiment [7], 15.6 µM (≈ 3.08 µg/mL); in experiment [8], 31.2 µM (≈ 6.16 µg/mL); in [9], over 250 µM; in experiment [10], 31.2 µM (≈ 6.16 µg/mL); in [2], 0.26 µM (≈ 0.0513 µg/mL). The IC50 is 0.159 µM in experiment [11] and 1.15 µM in experiment [12].
As for `CN(O)C(=O)CC(CP(=O)(O)O)c1ccc(Cl)cc1` (centres undefined), the MIC50 in experiment [4] is over 250 µM; in [7] it was over 250 µM; in experiment [8] it was over 250 µM; in [9], over 250 µM; in [10], over 250 µM; in experiment [2] it was over 64 µM. In addition, the inhibition result in [6] and in experiment [3] was “inactive” in each case.
